The source of these data is patent publication US20230391764A1, “BENZOTHIAZOLYL BICYCLO[1.1.1]PENTANE DERIVATIVES FOR THE TREATMENT AND PROPHYLAXIS OF HEPATITIS B VIRUS INFECTION” (Hoffmann-La Roche Inc., priority 2021, published 2023).

What all share (type): cell-based
For one series, the system named is HBsAg. The experiment in a line: PHH HBV natural infection assay, HBsAg (alphalisa). Conditions: Hepatitis B virus, 72 h, read-out: HBsAg IC50. Here is the method: (§1) Detailed procedures regarding primary human hepatocyte (PHH) HBV natural infection assay are described as below. One tube of frozen PHH (10 million cells) is thawed in 37° C. water bath and then transferred to 20 mL of PHH thawing medium (Sigma, InVitroGRO HT Medium, Cat. S03319) with gently mixing. The cells were then centrifuged at […] for 5 min, the supernatant was discarded and the tube was refilled with 25 mL of PHH plating medium (Sigma, InVitroGRO CP Medium, Cat. S03317). The tube was shaken very gently to re-suspend all cells, and then 50 μl of cells were transferred to each well 384-well collagen I coated plate with appropriate liquid handling equipment, e.g. Integra VIAFLO384 or Agilent Bravo. The cells were then cultured for 24 hours in a cell incubator. For HBV infection, after PHH attachment on the culture plate, the plating medium was removed and replenished with PHH culture medium containing HBV virus. The PHH culture medium was prepared with Dulbecco's Modified Eagle Medium (DMEM)/F12 (1:1 in volume ratio) containing 10% fetal bovine serum (Gibco, Cat.10099141), 5 ng/mL human epidermal growth factor (Gibco, Cat.PHG0311L), 20 ng/mL dexamethasone (Sigma, Cat.D4902-100 mg), 250 ng/mL human recombinant insulin (Gibco, Cat.41400045) and 100 U/mL penicillin. HBV virus at 200 genome equivalent (GE) per cell with 4% PEG8000 (Sigma, Cat.P1458) containing culture medium were added to the PHH culture medium for infection. The cells were then cultured for 24 hours in cell incubator. Then the cell culture supernatant was removed. The HBV-infected PHH were cultured with sandwich culture method with PHH culture medium containing 1% DMSO and 0.25 mg/mL matrix gel for 72 hours. The supernatant was then refreshed with PHH culture medium containing different concentrations of testing compounds for two times with 72-hour interval. At the end of treatment, the supernatant was collected for viral markers measurements, including HBsAg, HBeAg, HBV DNA and cytotoxicity. HBsAg and HBeAg were detected using alphalisa method using their specific antibodies. For HBV DNA detection, HBV DNA Quantitative Fluorescence Diagnostic Kit (Sansure Biotech Inc.) was used following the manufacture's protocol. Cytotoxicity was determined using Cell Counting Kit-8 (CCK8, Dojindo Molecular Technologies, Inc.).
(§2) The compounds of the present invention were tested for their capacity to inhibit HBsAg and HBeAg as described herein.
(In general: In Alpha technology, singlet oxygen from a donor bead excites a nearby acceptor bead.)

A short description of series [1]: PHH natural infection assay, cytotoxicity (Cell Counting Kit-8). Conditions: human; HBV-infected PHH, CCK8. On the procedure: as §1
On the technique in general: Tetrazolium assays rely on reduction of a dye to a coloured formazan, in cell work by metabolically active cells.

The next series concerns HBeAg. The experiment in a line: PHH HBV natural infection assay, HBeAg (alphalisa). Conditions: Hepatitis B virus, 72 h, read-out: HBeAg IC50. On the procedure: as §1, §2

Usually IC50 stands for the midpoint of a concentration-inhibition curve. As a reminder, the CC50 is the concentration giving 50% cytotoxicity. Higher therefore signals better tolerance by the cells. With `C[C@H](c1ccc(C(=O)NC23CC(c4nc5ccc(Cl)cc5s4)(C2)C3)o1)S(C)(=O)=O` (single isomer, unassigned) [Example 56a], the IC50 in the series on HBsAg and in the series with HBeAg was 230 nM throughout. Besides, in series [1], the midpoint of cytotoxicity, the CC50 at 144 h, lay at 15000 nM.
`C[C@@H](c1ccc(C(=O)NC23CC(c4nc5ccc(Cl)cc5s4)(C2)C3)o1)S(C)(=O)=O` (single isomer, unassigned) [Example 56b]: the figures for the IC50 with HBsAg and in the series on HBeAg were 190 nM and 160 nM, respectively. Besides, the cytotoxic concentration (CC50) at 144 h in series [1] is 14700 nM.
In the same order, the values of `CS(=O)(=O)C1(c2ccc(C(=O)NC34CC(c5nc6ccc(Br)cc6s5)(C3)C4)o2)CC1` [Example 2, N-[1-(6-bromo-1,3-benzothiazol-2-yl)-3-bicyclo[1.1.1]pentanyl]-5-(1-methylsulfonylcyclopropyl)furan-2-carboxamide] are 170 nM, 110 nM and 5850 nM.
For `CS(=O)(=O)C1(c2nsc(C(=O)NC34CC(c5nc6ccc(Br)cc6s5)(C3)C4)n2)CC1` [Example 4], the figures for the IC50 in the series with HBsAg and with HBeAg were 70 nM and 50 nM, respectively. Moreover, the CC50 at 144 h in series [1] is 4220 nM.
In the same order, the values of `CS(=O)(=O)C1(c2ccc(C(=O)NC34CC(c5nc6cc(Br)ccc6s5)(C3)C4)o2)CC1` [Example 6, N-(3-(5-bromobenzo[d]thiazol-2-yl)bicyclo[1.1.1]pentan-1-yl)-5-(1-(methylsulfonyl)cyclopropyl)furan-2-carboxamide] are 170 nM, 100 nM and 6030 nM.
The corresponding values for `CS(=O)(=O)C1(c2nsc(C(=O)NC34CC(c5nc6cc(Br)ccc6s5)(C3)C4)n2)CC1` [Example 7] are 100 nM, 60 nM and 8520 nM.
The corresponding values for `CS(=O)(=O)C1(c2ccc(C(=O)NC34CC(c5nc6ccc(C#N)cc6s5)(C3)C4)o2)CC1` [Example 8] are 790 nM, 720 nM and 12500 nM.
Take `C#Cc1ccc2nc(C34CC(NC(=O)c5ccc(C6(S(C)(=O)=O)CC6)o5)(C3)C4)sc2c1` [Example 10]: the IC50 with HBsAg was determined as 370 nM; in the series on HBeAg, 270 nM. Moreover, the midpoint of cytotoxicity in series [1], the CC50 at 144 h, lay at 11000 nM.
In the same order, the values of `CS(=O)(=O)C1(c2ccc(C(=O)NC34CC(c5nc6ccc(F)cc6s5)(C3)C4)o2)CC1` [Example 11] are 480 nM, 360 nM and 16300 nM.
The corresponding values for `CS(=O)(=O)Cc1ccc(C(=O)NC23CC(c4nc5ccc(Cl)cc5s4)(C2)C3)o1` [Example 13] are 1020 nM, 800 nM and greater than 50000 nM.
In the same order, the values of `CCC(c1ccc(C(=O)NC23CC(c4nc5ccc(Cl)cc5s4)(C2)C3)o1)S(C)(=O)=O` (stereo not drawn) [Example 14] are 200 nM, 150 nM and greater than 10000 nM.
As for `CS(=O)(=O)C1(c2ccc(C(=O)NC34CC(c5nc6ccc(Cl)cc6s5)(C3)C4)o2)CC1` [Example 15], the IC50 amounted to 210 nM with HBsAg and 160 nM in the series on HBeAg. Moreover, the 50% cytotoxic concentration (CC50) at 144 h in series [1] was determined as 6330 nM.
In the same order, the values of `CC(C)(c1ccc(C(=O)NC23CC(c4nc5ccc(Cl)cc5s4)(C2)C3)o1)S(C)(=O)=O` [Example 16] are 290 nM, 240 nM and 3760 nM.
The corresponding values for `CC(c1ccc(C(=O)NC23CC(c4nc5ccc(Cl)cc5s4)(C2)C3)o1)S(C)(=O)=O` (stereo not drawn) [Example 17, N-[3-(6-chloro-1,3-benzothiazol-2-yl)-1-bicyclo[1.1.1]pentanyl]-5-(1-methylsulfonylethyl)furan-2-carboxamide] are 170 nM, 150 nM and 14600 nM.
With `CC(C)(c1ncc(C(=O)NC23CC(c4nc5ccc(Cl)cc5s4)(C2)C3)o1)S(C)(=O)=O` [Example 22], the IC50 worked out at 720 nM with HBsAg and 470 nM in the series with HBeAg. The same compound gave a CC50 at 144 h in series [1] of 7550 nM.
In the same order, the values of `CC(C)(c1cc(C(=O)NC23CC(c4nc5ccc(Cl)cc5s4)(C2)C3)sn1)S(C)(=O)=O` [Example 27] are 840 nM, 650 nM and 8550 nM.
In the same order, the values of `CC(c1nsc(C(=O)NC23CC(c4nc5ccc(Cl)cc5s4)(C2)C3)n1)S(C)(=O)=O` (stereo not drawn) [Example 31] are 740 nM, 630 nM and 5710 nM.
The corresponding values for `CC(C)(c1nsc(C(=O)NC23CC(c4nc5ccc(Cl)cc5s4)(C2)C3)n1)S(C)(=O)=O` [Example 32] are 430 nM, 330 nM and 2950 nM.
As to `CC(n1ccc(C(=O)NC23CC(c4nc5ccc(Cl)cc5s4)(C2)C3)n1)S(C)(=O)=O` (stereo not drawn) [Example 34], the IC50 in the series with HBsAg was 440 nM; in the series with HBeAg, 390 nM. The compound further showed a CC50 at 144 h in series [1] of 7010 nM.
With `CS(=O)(=O)C(Br)c1ccc(C(=O)NC23CC(c4nc5cc(Cl)ccc5s4)(C2)C3)o1` (stereo not drawn) [Example 43], the concentration for half-maximal inhibition (IC50) in the series with HBsAg is 500 nM; in the series with HBeAg, 480 nM. The compound also returned a CC50 at 144 h in series [1] of 22800 nM.
The corresponding values for `CCC(c1ccc(C(=O)NC23CC(c4nc5cc(Cl)ccc5s4)(C2)C3)o1)S(C)(=O)=O` (stereo not drawn) [Example 44] are 230 nM, 160 nM and 20400 nM.
In the same order, the values of `CC(C)(c1ccc(C(=O)NC23CC(c4nc5cc(Cl)ccc5s4)(C2)C3)o1)S(C)(=O)=O` [Example 45] are 390 nM, 250 nM and 9940 nM.
Take `CC(c1ccc(C(=O)NC23CC(c4nc5cc(Cl)ccc5s4)(C2)C3)o1)S(C)(=O)=O` (stereo not drawn) [Example 46]: the concentration for half-maximal inhibition (IC50) in the series on HBsAg was found to be 370 nM; with HBeAg it was 230 nM. In series [1], this compound showed a CC50 at 144 h of 15300 nM.
The corresponding values for `CS(=O)(=O)C1(c2ccc(C(=O)NC34CC(c5nc6cc(Cl)ccc6s5)(C3)C4)o2)CC1` [Example 47] are 320 nM, 220 nM and 6620 nM.
In the same order, the values of `C[S+]([O-])C(C)(C)c1ccc(C(=O)NC23CC(c4nc5cc(Cl)ccc5s4)(C2)C3)o1` (stereo not drawn) [Example 50] are 100 nM, 80 nM and 1640 nM.
In the same order, the values of `CC(c1ccn(C(=O)NC23CC(c4nc5ccc(Cl)cc5s4)(C2)C3)n1)S(C)(=O)=O` (stereo not drawn) [Example 58, N-[3-(6-chloro-1,3-benzothiazol-2-yl)-1-bicyclo[1.1.1]pentanyl]-3-(1-methylsulfonylethyl)pyrazole-1-carboxamide] are 340 nM, 240 nM and 6060 nM.
`CC(C)(c1ccn(C(=O)NC23CC(c4nc5ccc(Cl)cc5s4)(C2)C3)n1)S(C)(=O)=O` [Example 60]: the values for the IC50 in the series on HBsAg and in the series on HBeAg were 122 nM and 90 nM, respectively. This compound yielded a CC50 at 144 h in series [1] of 4820 nM.
The corresponding values for `CC(C)(c1ccn(C(=O)NC23CC(c4nc5cc(Br)ccc5s4)(C2)C3)n1)S(C)(=O)=O` [Example 61] are 110 nM, 80 nM and 2090 nM.
The corresponding values for `CS(=O)(=O)C1(c2ccn(C(=O)NC34CC(c5nc6cc(Br)ccc6s5)(C3)C4)n2)CC1` [Example 62] are 70 nM, 40 nM and 3830 nM.
As for `CS(=O)(=O)C1(c2ccn(C(=O)NC34CC(c5nc6ccc(Cl)cc6s5)(C3)C4)n2)CC1` [Example 63], the IC50 in the series with HBsAg was found to be 110 nM; with HBeAg, 80 nM. The compound further yielded a CC50 at 144 h in series [1] of 5060 nM.
Consider `CS(=O)(=O)C1(c2ncc(C(=O)NC34CC(c5nc6ccc(Cl)cc6s5)(C3)C4)o2)CC1` [Example 67, N-[3-(6-chloro-1,3-benzothiazol-2-yl)-1-bicyclo[1.1.1]pentanyl]-2-(1-methylsulfonylcyclopropyl)oxazole-5-carboxamide], for which the IC50 with HBsAg was found to be 400 nM; in the series with HBeAg, 320 nM. The same compound showed a CC50 at 144 h in series [1] of 7250 nM.
In the same order, the values of `CS(=O)(=O)C(Cl)c1ccc(C(=O)NC23CC(c4nc5cc(Cl)ccc5s4)(C2)C3)o1` (stereo not drawn) [Example 75, 5-(chloro(methylsulfonyl)methyl)-N-(3-(5-chlorobenzo[d]thiazol-2-yl)bicyclo[1.1.1]pentan-1-yl)furan-2-carboxamide] are 550 nM, 430 nM and 16800 nM.
